test: in vitro; format: cell-based; settings: human, HOS cells, 48 h; read-out: CC50, cytotoxic concentration resulting in 50% reduction in the level of ATP
Protocol: Human embryonic kidney cell culture cell line 293 was acquired from the American Type Culture Collection (ATCC). The human osteosarcoma cell line, HOS, was obtained from Dr. Richard Schwartz (Michigan State University, East Lansing, MI, USA) and grown in Dulbecco’s modified Eagle’s medium (Invitrogen, Carlsbad, CA, USA) supplemented with 5% (v/v) fetal bovine serum, 5% newborn calf serum, and penicillin (50 units/mL) plus streptomycin (50 µg/mL; Quality Biological, Gaithersburg, MD, USA). The transfection vector, pNLNgoMIVR-ΔLUC was made from pNLNgoMIVR-ΔEnv.HSA by removing the HSA reporter gene and replacing it with a luciferase reporter gene between the NotI and XhoI restriction sites. To produce the new IN mutant S230N used in this study, the IN open reading frame was removed from pNLNgoMIVR-ΔENV.LUC by digestion with KpnI and SalI, and the resulting fragment was inserted between the KpnI and SalI sites of pBluescript KS+. Using that construct as the wild-type template, we prepared the following HIV-1 IN mutant S230N using the QuikChange II XL site-directed mutagenesis kit (Agilent Technologies, Santa Clara, CA, USA) protocol. The following sense oligonucleotides were used with matching cognate antisense oligonucleotides (not shown) (Integrated DNA Technologies, Coralville, IA, USA) in the mutagenesis: S230N 5′-[…]-3′. The DNA sequence of the IN mutant S230N construct was verified independently by DNA sequence determination. The mutated IN coding sequences from pBluescript KS+ were then subcloned into pNLNgoMIVR-ΔEnv.LUC (between the KpnI and SalI sites) to produce mutant HIV-1 constructs, which were also checked by DNA sequencing. […]. On the day prior to transfection, 293 cells were plated on 100 mm diameter dishes at a density of 1.5 × 10^6 cells per plate. Next, 293 cells were transfected with 16 µg of pNLNgoMIVR^-ΔLUC and 4 µg of pHCMV-g (obtained from Dr. Jane Burns, University of California, San Diego) using the calcium phosphate method. At approximately 6 h after the calcium phosphate precipitate was added, 293 cells were washed twice with phosphate-buffered saline (PBS) and incubated with fresh media for 48 h. The virus-containing supernatants were then harvested, clarified by low-speed centrifugation, filtrated, and diluted for preparation in antiviral infection assays. On the day prior to the screen, HOS cells were seeded in a 96-well luminescence cell culture plate at a density of 4000 cells in 100 µL per well. On the day of the screen for cellular cytotoxicity determination, cells were treated with compounds from a concentration range of 250 µM to 0.05 µM and then incubated at 37 °C for 48 h. On the day of the screen for antiviral activity infection assays, cells were treated with compounds from a concentration range of 5 µM to 0.0001 µM using 11 serial dilutions and then incubated at 37 °C for 3 h. After compound incorporation and activation in the cell, 100 µL of virus-stock (WT or mutant) diluted to achieve a luciferase signal between 0.2 and 1.5 Relative Luciferase Units (RLUs) was added to each well and further incubated at 37 °C for 48 h. Cellular cytotoxicity was measured by using the ATP Lite Luminescence detection system and monitored by adding 50 µL of cell lysis buffer from the Luminescence ATP detection assay to each well followed by mixing at 700 rpm at room temperature for 5 min using a compact thermomixer. After addition of 50 µL of reconstituted Luminescence ATP detection assay reagent to all wells except for the negative control/background wells, the plates were mixed at 700 rpm at room temperature for 5 min using a compact thermomixer, incubated at room temperature for 20 min to allow time for signal development, and finally, cytotoxicity was determined using the microplate reader. Infectivity was measured by using the Steady-lite plus luminescence reporter gene assay system (PerkinElmer, Waltham, MA, USA). […]

Row | Compound | CC50 [µM]
1 | O=C(NCc1ccc(F)cc1F)c1cn2c(c(O)c1=O)C(=O)N(CCCCO)CC2 [Compound 7e, N-(2,4-Difluorobenzyl)-9-hydroxy-2-(4-hydroxybutyl)-1,8-dioxo-1,3,4,8-tetrahydro-2H-pyrido [1,2-a]pyrazine-7-carboxamide] | > 250
2 | O=C(NCc1ccc(F)cc1F)c1cn2ccn(CCCCCO)c(=O)c2c(O)c1=O [Compound 6d, N-(2,4-Difluorobenzyl)-9-hydroxy-2-(5-hydroxypentyl)-1,8-dioxo-1,8-dihydro-2H-pyrido [1,2-a]pyrazine-7-carboxamide] | > 250
3 | O=C(NCc1ccc(F)cc1F)c1cn2ccn(CCCCCCO)c(=O)c2c(O)c1=O [Compound 6c, N-(2,4-Difluorobenzyl)-9-hydroxy-2-(6-hydroxyhexyl)-1,8-dioxo-1,8-dihydro-2H-pyrido [1,2-a]pyrazine-7-carboxamide] | > 250
4 | O=C(NCc1ccc(F)cc1F)c1cn2c(c(O)c1=O)C(=O)N(CCCCCCO)CC2 [Compound 7c, N-(2,4-Difluorobenzyl)-9-hydroxy-2-(6-hydroxyhexyl)-1,8-dioxo-1,3,4,8-tetrahydro-2H-pyrido [1,2-a]pyrazine-7-carboxamide] | > 250
5 | O=C(NCc1ccc(F)cc1F)c1cn2ccn(CCCCO)c(=O)c2c(O)c1=O [Compound 6e, N-(2,4-Difluorobenzyl)-9-hydroxy-2-(4-hydroxybutyl)-1,8-dioxo-1,8-dihydro-2H-pyrido [1,2-a]pyrazine-7-carboxamide] | > 250

Reference: PMC9919513, “A Practical Approach to Bicyclic Carbamoyl Pyridones with Application to the Synthesis of HIV-1 Integrase Strand Transfer Inhibitors” (Molecules, 2023)
